Patent US20130122127A1, “Extract of Coptidis Rhizoma and novel use thereof in treating respiratory disease” (AHN-GOOK PHARMACEUTICAL CO., LTD., priority 2008, published 2013)
Several values for one entry are separate records, joined by “and”; a condition that tells them apart may be missing. Equal values may be shown once.

How the values were obtained:
male guinea pig = assay: Antitussive activity, citric acid-induced cough in guinea pig; type: in vivo; conditions: oral 50 mg/kg, 0.2M citric acid
Method: In order to measure antitussive activity of Coptidis Rhizoma extracts of Examples 1-1 to 1-3, experiment was conducted using Tanaka et al. method (Motomu Tanaka and Kei Maruyama., J. Pharmacol. Sci. 93, 465˜470, 2003., Daoui, Cognon, Naline et., Am. J. Respir. Crit. Care. Med. 158, 42˜48, 1998) in the following procedure.
A test drug was orally administered to a male guinea pig (6-weeks age, Sam tako BioKorea), and after 1 hour, the guinea pig was put in a plethysmograph chamber (Buxco, U.S.A.), and then, a cough inducer, citric acid (Sigma) was nebulized to induce cough. As positive control, theobromine (Sigma) which is used as an antitussive was used. And, the guinea pig was exposed to 0.2M citric acid for 10 minutes, and the number of coughs occurred was measured for 15 minutes.
In order to measure antitussive activities of 5 sub-fractions prepared in the above Example 1-4, experiment for antitussive activity was conducted by the same method as Experiment 3-2, of which results are presented in the following Table 7. […]

peritoneal mast cell = assay: Antihistamine activity, compound 48/80-induced histamine release from peritoneal mast cells of ovalbumin-sensitized rat; type: cell-based; conditions: oral dosage 5 mg/kg
Method: In order to measure antihistamine activity of Coptidis Rhizoma extract of Examples 1-1 to 1-3, experiment was conducted using Honuchi et al. method (Masako Honuchi and Yoshiyuki Seyama, J. Health Sci., 52(6), 711˜717, 2006., Naoki Inagaki et al. Biol. Pharm. Bull. 24(7), 829˜834, 2001.) in the following procedure.
Antihistamine effect was measured using peritoneal mast cell of a male rat (7-weeks age, Sam tako BioKorea) sensitized with ovalbumin As positive control, Ketotifen (Sigma) was used. To a rat sensitized with ovalbumin, Ketotifen was orally administered at a concentration of 5 mg/kg, and test drugs were orally administered respectively at a concentration of 200 mg/kg for 4 days, and then, peritoneal mast cells were separated. The separated peritoneal mast cells (2×10^5 cells/ml) were treated with Ketotifen at concentrations of 0.01 mg/ml, 0.1 mg/ml, and 1.0 mg/ml, and test drugs at concentrations of 0.1 mg/ml, 1.0 mg/ml, and 10 mg/ml. Finally, the mast cells were treated with compound 48/80 (Sigma) which activates non-immunological histamine release at a concentration of 10 μg/ml. At this time, the amount of histamine released from mast cells was quantified to examine whether the test materials suppress release of histamine from the mast cells. The relative amount of histamine released from mast cell in a rat to which no drug was administered was measured, of which results are presented in the following Table 5.
In order to measure antihistamine activities of 5 sub-fractions prepared in the above Example 1-4, the same experiment was conducted as the above Experiment 3-3, of which results are presented in the following Table 8.
In order to measure antihistamine effect of ivy leaf extract, and combined extract of Coptidis Rhizoma with ivy leaf (Examples 2-1 to 2-11) prepared in Example 2 in mast cell, experiment was conducted by the same method as described in [Experiment method] in Experiment 3-3 using Honuchi et al. method (Masako Honuchi and Yoshiyuki Seyama, J. Health Sci., 52(6), 711˜717, 2006., Naoki Inagaki et. Biol. Pharm. Bull. 24(7), 829˜834, 2001.), of which results are presented in the following Table 13.

male mouse = assay: Expectorant activity, phenol red secretion method in mouse; type: in vivo
Method: In order to measure expectorant activities of Coptidis Rhizoma extracts of the Examples 1-1 to 1-3, experiment was conducted using Engler et al. method ([…]. Pharmacol. Moth. 11, 151 157, 1984, Bao-quin Lin et., Pulmonary Pharmacology & Therapeutics 21, 259 263, 2008.) in the following procedure. A positive control drug (ambroxol, Sigma) and test drugs (Coptidis Rhizoma extract of Examples 1-1 to 1-3) were orally administered to a male mouse (8-weeks age, Sam tako BioKorea), and after 30 minutes, 500 mg/kg of phenol red was intraperitoneally injected (phenol red was dissolved in saline). After 30 minutes, the mouse was anesthetized with diethyl ether, exsanguinated by cutting the abdominal aorta, and then the whole trachea was resected. […] In order to evaluate expectorant activities of the combined extract and single extract prepared in the Example 2 (2-1 to 2-11), experiment was conducted by the same method as described in [Experiment method] of Experiment 3-1, using Engler, et al. method ([…]. Pharmacol. Moth. 11, 151 157, 1984., Bao-quin Lin et., Pulmonary Pharmacology & Therapeutics 21, 259 263, 2008.), of which results are shown in FIG. 2.

[1] = system: neutrophils and eosinophils in BALF; assay: Murine asthma model: number of cells in bronchoalveolar lavage fluid (BALF); type: in vivo, mouse; conditions: Day 22, 30 mg/kg oral
Method: (§1) And, for evaluation, examination of airway hyper-responsiveness (AHR) for methacholine, examination of IgE value in blood plasma, examination of the number of cells and the distribution of white blood cells in bronchoalveolar lavage fluid (BALF), observation of pulmonary tissue, and RT-PCR (IL-1β, IL-4, IL-13r2a) were conducted.
(§2) To a Balb/c mouse (18˜21 g, Orientbio Inc.), an ovalbumin (OVA, Sigma) solution prepared for intraperitoneal injection was intraperitoneally administered in an amount of 500 ul (20 ug as OVA) per one mouse at Day 0 and Day 7, and it was sensitized with a solution prepared for OVA inhalation using a nebulizer (NE-U17, OMRON Co. Ltd, Japan) and then, the prepared 5% OVA solution was inhaled everyday for 30 minutes from Day 14 to Day 20. As positive control drug, 30 mg/kg of montelukast sodium was used, and all the experiment materials were used in an amount of 200 mg/kg. […]
To the animals whose blood was sampled according to 2), sodium pentothal (50 mg/kg) was injected intraperitoneally to anesthetize it. […] For the suspension, the numbers of total leucocytes, neutrophils, eosinophils and lymphocytes were measured using automated hematology analyzers (Advia 120 coulter counter, BAYER, Germany).

immunoglobulin E (IgE) = assay: Murine asthma model: IgE value in blood plasma (ELISA); type: in vivo, mouse; conditions: Day 21, 30 mg/kg oral
Method: as §1, §2
For the animal measured according to 1), about 0.05 ml of blood was collected by orbital blood sampling and centrifuged, and the obtained plasma was divided into two parts and diluted to 1:10 to examine immunoglobulin E (IgE) value in plasma through IgE enzyme linked immunosorbent assay (ELISA; IgE ELISA kit for mouse, ME-151, SHIBAYAGI Co., Ltd., JAPAN).

IL-13r2a = assay: Murine asthma model: RT-PCR of lung tissue, IL-13r2a; type: in vivo, mouse; conditions: band density divided by actin density, 30 mg/kg oral
Method: as §1, §2
(§3) Right pulmonary tissue was rapidly taken off and stored at −80° C. before experiment. RNA was separated from the tissue using RNA-Bee (Tel-Test Inc. USA), and the separated RNA was quantified at 260 nm using a spectrometer, and then, 4 ug of RNA and Oligo dT 2 ul (Promega), DEPC water were added to make 10 ul and the mixture was reacted at 65 r for 5 minutes. […]

IL-4 = assay: Murine asthma model: RT-PCR of lung tissue, IL-4; type: in vivo, mouse; conditions: band density divided by actin density, 30 mg/kg oral
Method: as §1, §2, §3

pulmonary tissue = assay: Murine asthma model: observation of pulmonary tissue; type: in vivo, mouse; conditions: score 1=No, 2=slight, 3=thin, 4=moderate, 5=thick; 30 mg/kg oral
Method: as §1
(§4) To a Balb/c mouse (18˜21 g, Orientbio Inc.), an ovalbumin (OVA, Sigma) solution prepared for intraperitoneal injection was intraperitoneally administered in an amount of 500 ul (20 ug as OVA) per one mouse at Day 0 and Day 7, and it was sensitized with a solution prepared for OVA inhalation using a nebulizer (NE-U17, OMRON Co. Ltd, Japan) and then, the prepared 5% OVA solution was inhaled everyday for 30 minutes from Day 14 to Day 20. As positive control drug, 30 mg/kg of montelukast sodium was used, and all the experiment materials were used in an amount of 200 mg/kg. And, positive control drug and the experiment materials were orally administered everyday one hour before OVA inhalation for 7 days of from Day 14 to Day 20 after sensitization, and then, experiments were conducted by the following evaluation items.
The left lung fixed with a nipper was taken off and fixed with a 10% formalin solution for one day, and then, paraffin-penetrated tissue using a tissue processor was cut to a thickness of 3-4 um using a microtome to make tissue fragments. […]

[2] = system: OVA-sensitized Balb/c mouse; assay: Murine asthma model: airway hyper-responsiveness (AHR) to methacholine; type: in vivo; conditions: 30 mg/kg oral, Day 14-20
Method: as §1, §4
24 hours after final inhalation of OVA (at Day 21), the mouse was put in a whole body plethysmograph (BUXCO, USA), each 0.4 ml of methacholine solutions of concentrations of 0, 10 and 20 mg/ml were taken to introduce in an aerosol, and inhaled to the mouse respectively for 3 minutes. And, Penh were measured for 4 minutes from the inhalation time, and the average value was set as Penh (enhanced pause) at corresponding dosage of methacholine.

IL-1β = assay: Murine asthma model: RT-PCR of lung tissue, IL-1β; type: in vivo, mouse; conditions: band density divided by actin density, 30 mg/kg oral
Method: as §1, §2, §3

SMILES: Cn1cnc2c1c(=O)[nH]c(=O)n2C [Theobromine, theobromine]
- Capacity to suppress cough (%) (male guinea pig): 57% and 56%

SMILES: CN1CCC(=C2c3ccccc3CC(=O)c3sccc32)CC1 [Ketotifen]
- Histamine release amount (%) (peritoneal mast cell; mast cell treatment 0 mg/ml): 43% and 44%
- Histamine release amount (%) (peritoneal mast cell; mast cell treatment 0.01 mg/ml): 41%
- Histamine release amount (%) (peritoneal mast cell; mast cell treatment 0.1 mg/ml): 32%
- Histamine release amount (%) (peritoneal mast cell; mast cell treatment 1.0 mg/ml): 18% and 19%

SMILES: Nc1c(Br)cc(Br)cc1CN[C@H]1CC[C@H](O)CC1 [Ambroxol, ambroxol]
- Capacity to discharge sputum (%) (male mouse; oral 250 mg/kg): 34%
- Capacity to secrete sputum (%) (male mouse; oral 250 mg/kg, 250 mg/kg): 32% and 30%

SMILES: CC(C)(O)c1ccccc1CC[C@@H](SCC1(CC(=O)O)CC1)c1cccc(/C=C/c2ccc3ccc(Cl)cc3n2)c1 [montelukast, montelukast sodium]
- WBC EOS (eosinophil) [1]: 466.0 ± 207.0 ×10^3 cells
- WBC NEU (neutrophil) [1]: 22.3 ± 7.2 ×10^3 cells
- IgE level (immunoglobulin E (IgE)): 13.7 ± 5.7 ng/mL
- Degree of cytokine expression IL-13r2a (IL-13r2a): 0.37 ± 0.31
- Degree of cytokine expression IL-4 (IL-4): 1.47 ± 0.48
- Microscope observation: Degree of infiltration of inflammatory cells (pulmonary tissue): 3.7 ± 0.5
- Microscope observation: Degree of occlusion of bronchus (pulmonary tissue): 3.5 ± 0.5
- Penh value according to methacholine dosage ([2]; methacholine 0 mg/ml): 1.5 ± 0.2
- Penh value according to methacholine dosage ([2]; methacholine 10 mg/ml): 8.4 ± 2.4
- Penh value according to methacholine dosage ([2]; methacholine 20 mg/ml): 19.8 ± 5.4
- Degree of cytokine expression IL-1β (IL-1β): 0.51 ± 0.26

SMILES: COc1ccc2cc3[n+](cc2c1OC)CCc1cc2c(cc1-3)OCO2 [Berberine, berberine]
- Capacity to discharge sputum (%) (male mouse; oral 125 mg/kg): 39%
